# Source: article PMC7269146, “Jingzhaotoxin-X, a gating modifier of Kv4.2 and Kv4.3 potassium channels purified from the venom of the Chinese tarantula Chilobrachys jingzhao” (The Journal of Venomous Animals and Toxins Including …, 2020)
# “Also recorded” adds a separate entry of the source. Where a SMILES comes first, the peptide text is derived from it. Bridges are numbered along the chain shown (N, C = ends).
# Key:
# Nav1.5 = assay: voltage-clamp, Nav1.5 currents; assay type: cell-based, human; conditions: 1 μM; n = 3
# Source text: (§1) Rat cDNA genes encoding Kv4.2 (Accession: NM_031730.2) and Kv4.3 (Accession: AB003587.1) were subcloned to vector pcDNA3.1. In addition, human cDNA genes encoding Nav1.7 (Accession: DQ857292.1) and Nav1.5 (Accession: AB158469.2) were subcloned to vectors pcDNA3.1-mod and pcDNA3.1, separately. Then, Kv4.2, Kv4.3, Nav1.5 and Nav1.7 constructs were transiently transfected into the human embryonic kidney 293t (HEK293t) cells using lipofectamine 2000 (Invitrogen, USA) in accordance with manufacturer protocols. Thereafter, HEK293 cells were inoculated within Dulbecco’s modified Eagle’s medium (DMEM) containing 10% fetal bovine serum (FBS) at 5% CO2 and 37°C. The Kv4.3 channel and the Kv4.2 counterpart were then transfected in the absence of β subunit. Subsequently, cells were incubated with a DNA-lipofectamine mixture (one reporter plasmid for green fluorescence protein and channel constructs) for 4-6 h, and were washed with the fresh medium.
# (§2) An EPC-10 patch-clamp amplifier (HEKA, Germany) was employed to record the potassium currents at the configuration of whole-cell patch-clamp under an ambient temperature of 22-25°C. The resistance was 2.0-3.0 MΩ when the recording pipette contained a full volume of internal solution (supplemented with 140 mM KCl, 10 mM HEPES, 2.5 mM MgCl2, 5 mM ATP and 11 mM EGTA). […]
# Nav1.7 = assay: voltage-clamp, Nav1.7 currents; assay type: cell-based, human; conditions: 1 μM; n = 3
# Source text: as §1, §2
# Kv2.1 = assay: microelectrode voltage-clamp, Xenopus laevis oocytes, Kv2.1; assay type: cell-based; conditions: 10 μM, 300-ms depolarization to +20 mV from -90 mV, pH 7.5, 19-23°C, n = 3
# Experimental: (§3) Briefly, plasmids were linearized, and transcription was carried out according to the standardized protocol. Afterwards, the capped cRNAs that encoded the related ion channels were prepared. To conduct transcription in vitro, firstly, NotL was utilized to linearize plasmids pCI that contained both Kv1.1 (Accession: NM_010595.3) and Kv2.1 (Accession: AF026005.1), whereas SphI was adopted to linearize plasmid PcDNA3 containing Kv1.2 (Accession: NM_012970.3) gene. […] Thereafter, the linearized plasmids were used as the templates to synthesize cRNAs in vitro using the large-scale T7 mMESSAGE mMACHINE transcription kit (Ambion, USA).
# (§4) A mature female X. laevis was placed on the ice for anesthesia, and then the Xenopus laevis oocytes at stage IV-VI were extracted. Subsequently, those extracted oocytes were treated by collagenase (1 mg/mL) contained within the calcium-depleted ND96 solution (containing 96 mM NaCl, 10 mM HEPES, 1 mM MgCl2, and 2 mM KCl) for defolliculation. […]
# (§5) Firstly, the effects of JZTX-X on the isoforms of potassium channels (including Kv1.1-1.3, Kv2.1, as well as Kv4.2-4.3) contained within the X. laevis oocytes were investigated through the microelectrode voltage-clamp approach. […] We also determined the effects of JZTX-X on Ito potassium channels in rat DRG neurons; those current amplitudes were inhibited by 54.4±6.8% when 500 nM JZTX-X was applied (Fig. 3K, n = 5).
# Kv1.2 = assay: microelectrode voltage-clamp, Xenopus laevis oocytes, Kv1.2; assay type: cell-based; conditions: 10 μM, 300-ms depolarization to +20 mV from -90 mV, pH 7.5, 19-23°C, n = 3
# Experimental: as §3, §4, §5
structure (smiles),measurement,setting,value
"CC(C)C[C@@H]1NC(=O)[C@H](CCCCN)NC(=O)[C@H](Cc2ccc(O)cc2)NC(=O)[C@@H]2CSSC[C@@H]3NC(=O)[C@H](Cc4ccc(O)cc4)NC(=O)[C@H](Cc4ccccc4)NC(=O)CNC(=O)[C@H](C)NC(=O)[C@H](CSSC[C@H](NC(=O)[C@@H](N)CC(C)C)C(=O)N[C@@H](CO)C(=O)N[C@@H](CCCNC(=N)N)C(=O)N[C@@H](CCC(=O)O)C(=O)NCC(=O)N[C@@H](CCC(=O)O)C(=O)N[C@@H](Cc4ccccc4)C(=O)N2)NC(=O)[C@H](CSSC[C@@H](C(=O)N[C@@H](Cc2ccc(O)cc2)C(=O)N[C@@H](CCCNC(=N)N)C(=O)N[C@@H](CC(N)=O)C(=O)O)NC(=O)[C@H](Cc2c[nH]cn2)NC(=O)[C@H](CC(C)C)NC(=O)[C@H](C(C)C)NC(=O)[C@H](Cc2ccccc2)NC(=O)[C@H](C)NC(=O)[C@H](CCCCN)NC3=O)NC(=O)[C@H](CCCCN)NC(=O)[C@H](CCCNC(=N)N)NC1=O [JZTX-X, Jingzhaotoxin-X] (H-LCSREGEFCYKLRKCCAGFYCKAFVLHCYRN-OH; disulfide 2-16, 9-21, 15-28; N-terminus assumed)",effect on Nav1.5 channel,Nav1.5,negligible effect; also recorded: did not affect the currents
same,effect on Nav1.7 channel,Nav1.7,negligible effect; also recorded: did not affect the currents
same,inhibition of Kv2.1 current,Kv2.1,less than 5%
same,inhibition of Kv1.2 current,Kv1.2,less than 5%
